Read-outs that look alike come from different tables or passages of the source.

One assay has as its target T1, Angiotensin II Receptor (Bos taurus, UniProt P25104).
T1 construct: The brownish tissue forming the adrenal cortex is scraped off and finely minced with scissors before homogenization; tissue local slaughter house (maxwell-Cohen); host or cells: beef adrenal cortex, 100,000 x g microsomal membranes
T1 sequence (P25104 1-359): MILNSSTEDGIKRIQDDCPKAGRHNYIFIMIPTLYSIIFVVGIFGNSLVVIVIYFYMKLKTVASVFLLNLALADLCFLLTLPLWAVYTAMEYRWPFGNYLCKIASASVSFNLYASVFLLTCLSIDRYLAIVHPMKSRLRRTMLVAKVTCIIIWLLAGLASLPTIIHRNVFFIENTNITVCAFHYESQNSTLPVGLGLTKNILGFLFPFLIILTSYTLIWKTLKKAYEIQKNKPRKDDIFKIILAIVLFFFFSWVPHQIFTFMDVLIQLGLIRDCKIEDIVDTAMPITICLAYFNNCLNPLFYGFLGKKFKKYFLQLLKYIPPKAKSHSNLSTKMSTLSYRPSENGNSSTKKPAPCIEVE
The experiment in a line: Receptor Binding Assay: displacement of [^125 I](Sar^1,Ile^8)AngII from adrenal cortex microsomal membranes. Details: species or system beef (bovine adrenals). The text has this: Beef adrenals are obtained from a local slaughter house (maxwell-Cohen). [^125 I](Sar^1,Ile^8)AngII, S.A. 2200 Ci/mmole, is purchased from Dupont (NEN®, Boston, Mass.). All unlabeled AngII analogs, Dimethylsulfoxide (DMSO), nucleotides, bovine serum albumin (BSA) are purchased from Sigma Chemical Co., St. Louis, Mo. U.S.A.
Approximately sixteen (16) to twenty (20) beef adrenal glands are processed as follows: fresh adrenal glands received on crushed ice are cleaned of fatty tissues and the tough membranes encapsulating the glands are removed and discarded. The brownish tissue forming the adrenal cortex is scraped off and finely minced with scissors before homogenization. Care is taken to avoid contamination with medullary tissue during dissection. The scraped cortices are suspended in twenty volumes of an ice-cold buffer medium consisting of 10 mM Tris.HCl (pH 7.4 at 22° C.) and containing 1.0 mM EDTA and 0.2M sucrose. Unless otherwise indicated, all subsequent operations are done at 4° C. […] The homogenate is centrifuged first at low speed (3,000× g) for 10 min. The resulting pellet is discarded and the supernatant fluid recentrifuged at 10,000× g for 15 minutes to give a P2 pellet. This P2 pellet is discarded and the liquid phase is carefully decanted off in clean centrifuge tubes and recentrifuged at high speed (100,000× g) for 60 min. The translucent final pellet is harvested and combined in a small volume (20-50.0 ml) of 50.0 mM Tris.HCl buffer, pH 7.2. A 100 ul aliquot is withdrawn and the protein content of the preparation is determined by the Lowry's method (Lowry, O. H., Rosebrough, N. F., Parr, A. L. and Randall, R. J., Protein measurement with Folin phenol reagent. J. Biol. Chem., 48, 265-275; 1951). The pelleted membrane is reconstituted in 50.0 mM Tris.HCl buffer containing 0.1 mM of phenylmethylsulfonyl fluoride (PMSF) to give approximately a protein concentration of 2.5 mg per ml of tissue suspension. The membrane preparation is finally aliquoted in 1.0 ml volumes and stored at -70° C. until use in the binding assays.
The binding of [^125 I](Sar^1,Ile^8)AngII to microsomal membranes is initiated by the addition of reconstituted membranes (1:10 vols.) in freshly made 50.0 mM Tris.HCl buffer, pH 7.4 containing 0.25% heat inactivated bovine serum albumin (BSA): 80 ul membrane protein (10 to 20 ug/assay) to wells already containing 100 ul of incubation buffer (as described above) and 20 ul [^125 I](Sar^1,ILE^8)AngII (Specific Activity, 2200 Ci/mmole). Non-specific binding is measured in the presence of 1.0 uM unlabeled (Sar^1,ILE^8)AngII, added in 20 ul volume. […] In competition studies, experimental compounds are diluted in dimethylsulfoxide (DMSO) and added in 20 ul to wells before the introduction of tissue membranes. […] Assays are performed in triplicate. The wells are left undisturbed for 60 min. at room temperature. Following incubation, all wells are harvested at once with a Brandel® Harvester especially designed for a 96 well plate (Brandel® Biomedical Research & Development Labs. Inc., Gaithersburg, Md., U.S.A.). The filter discs are washed with 10×1.0 ml of cold 0.9% NaCl to remove unbound ligand. […] This method is routinely used. The filters are removed from the filter grid and counted in a Parkard® Cobra Gamma Counter for 1 min. (Packard Instrument Co., Downers Grove, Ill., U.S.A.). The binding data are analyzed by the non-linear interactive "LUNDON-1" program (LUNDON SOFTWARE Inc., Cleveland, Ohio U.S.A.).

Assay [1] has as its system Angiotensin II (AII) vasopressor response. The assay is described as follows: AII Challenge: antagonism of angiotensin II vasopressor response in conscious spontaneously hypertensive rats. Format: in vivo, rat (male okamoto-Aoki SHR). To be noted: 3 mg/kg I.V.; for inhibition in vivo at 3 mg/kg: Rattus norvegicus, iv, read-out: Inhibition; for inhibition in vivo at 3 mg/kg / Average Change: SHR n=2; for Change: single SHR. The text has this: Conscious Male okamoto-Aoki SHR, 16-20 weeks old, weighing approximately 330 g are purchased from Charles River Labs (Wilmington, Mass.). Conscious rats are restrained in a supine position with elastic tape. The area at the base of the tail is locally anesthetized by subcutaneous infiltration with 2% procaine. […] The cannula is secured, heparinized (1,000 I.U./ml), sealed and the wound is closed. The animals are placed in plastic restraining cages in an upright position. The cannula is attached to a Statham P23Db pressure transducer, and pulsatile blood pressure is recorded to 10-15 minutes with a Gould Brush recorder. […] Angiotensin II (human sequence, Sigma Chem. Co., St. Louis, Mo.) of 0.05 and 0.1 ug/kg i.v. is injected into all rats (predosing response). Then a test compound, vehicle or a known angiotensin II antagonist is administered i.v., i.p. or orally to each set of rats. […] The vasopressor response of angiotensin II is measured for the increase in systolic blood pressure in mmHg.

Where [2] appears, read: AII 0.05 mcg/kg IV, 180 min post dose.
Setting [3] is: AII 0.1 mcg/kg IV, 30 min post dose.

“[^125 I](Sar^1,Ile^8) AngII [reference compound]”: the “Specific binding of radioligand” value on Angiotensin II Receptor (microsomal membranes, 60 min, room temperature) is reported as “greater than 90%”.
For the molecule `CCCCc1nc2ccc([C@@H]3[C@@H]4C(=O)OC[C@@H]4ON3C)cc2c(=O)n1Cc1ccc(-c2ccccc2-c2nnn[nH]2)cc1` (relative stereo) [Example 54], the IC50 at Angiotensin II Receptor came out at 160 nM.
Take `CCCCc1nc2ccc([C@H]3[C@@H]4CCCCCC[C@@H]4ON3C)cc2c(=O)n1Cc1ccc(-c2ccccc2-c2nnn[nH]2)cc1` (relative stereo) [Example 52]: the inhibition in vivo at 3 mg/kg in assay [1] (0.5 h, AII 0.05 mcg/kg IV, 30 min post dose) was 89%; in assay [1] (0.5 h, AII 0.1 mcg/kg IV, 30 min post dose), 76%; in assay [1] (1 h, AII 0.05 mcg/kg IV, 60 min post dose), 80%; in assay [1] (1 h, AII 0.1 mcg/kg IV, 60 min post dose), 59%; in assay [1] (2 h, AII 0.05 mcg/kg IV, 120 min post dose) it was 63%; in assay [1] (2 h, AII 0.1 mcg/kg IV, 120 min post dose) it was 59%. In addition, the inhibition in vivo at 3 mg/kg in assay [1] (3 h, AII 0.05 mcg/kg IV, 180 min post dose) is 20%; in assay [1] (3 h, AII 0.1 mcg/kg IV, 180 min post dose), 12%; in assay [1] (4 h, AII 0.05 mcg/kg IV, 240 min post dose), 27%; in assay [1] (4 h, AII 0.1 mcg/kg IV, 240 min post dose), 47%; in assay [1] (5 h, AII 0.05 mcg/kg IV, 300 min post dose), 33%; in assay [1] (5 h, AII 0.1 mcg/kg IV, 300 min post dose), 15%. Also, the inhibition in vivo at 3 mg/kg in assay [1] ([…], AII 0.05 mcg/kg IV, 90 min post dose) is 24%; in assay [1] ([…], AII 0.1 mcg/kg IV, 90 min post dose) it was 53%. Further, the “Average Change” value stood at 4 mmHg in assay [1] (AII 0.05 mcg/kg IV, 30 min post dose); 7.5 mmHg in assay [1] (AII 0.05 mcg/kg IV, 60 min post dose); 28.5 mmHg in assay [1] (AII 0.05 mcg/kg IV, 90 min post dose); 14 mmHg in assay [1] (AII 0.05 mcg/kg IV, 120 min post dose); 30 mmHg in assay [1] (setting [2]); 27.5 mmHg in assay [1] (AII 0.05 mcg/kg IV, 240 min post dose). In addition, the “Average Change” value was 10 mmHg in assay [1] (setting [3]); 17.5 mmHg in assay [1] (AII 0.1 mcg/kg IV, 60 min post dose); 20 mmHg in assay [1] (AII 0.1 mcg/kg IV, 90 min post dose); 17.5 mmHg in assay [1] (AII 0.1 mcg/kg IV, 120 min post dose); 37.5 mmHg in assay [1] (AII 0.1 mcg/kg IV, 180 min post dose); 22.5 mmHg in assay [1] (AII 0.1 mcg/kg IV, 240 min post dose). Besides, in assay [1] (AII 0.1 mcg/kg IV, 300 min post dose), the “Average Change” value is 36 mmHg. For the same molecule, the Change in assay [1] (setting [2]) is 30 mmHg; in assay [1] (AII 0.05 mcg/kg IV, 300 min post dose) it was 25 mmHg; in assay [1] (setting [3]) it was 10 mmHg.

What is called IC50 is the midpoint of a concentration-inhibition curve. A higher IC50 goes with lower potency.

Source of the values: patent US5294611A, “Angiotensin II receptor blocking 2,3,6 substituted quinazolinones” (American Cyanamid Company, priority 1993, dated 1994).
